Measurements as given in patent US20230149510A1, “METHOD FOR ALLEVIATING ARTHRITIS USING EPIDERMAL GROWTH FACTOR” (Lovin BioMed Co., Ltd., priority 2021, published 2023).

Tested on: TNF-α, IL-1β, IL-6, IL-17A, IFN-γ and IL-8 in sole tissue, CII-induced RA
Assay: Inflammatory markers in sole tissue (ELISA), collagen-induced RA
Assay type: in vivo, DBA/1 mice
Conditions: mouse sole tissue
Description: 2 mg/mL of a Chick type II collagen (CII) solution (Chondrex Inc., Cat. No. 20012) (in 10 mM acetic acid) was mixed with complete Freund's adjuvant (Sigma Aldrich, Cat. No. F5881-10ML) at a ratio of 1:1 (v/v), so as to obtain a first CII emulsion. 2 mg/mL of a Chick type CII solution was mixed with incomplete Freund's adjuvant (ChemCruzx, Cat. No. sc-24648) at a ratio of 1:1 (v/v), so as to obtain a second CII emulsion.
The female DBA/1 mice were divided into five groups, including one normal control group, one pathological control group, one comparative group, and two experimental groups (i.e., experimental groups 1 to 2) (n=6 mice in each group). 200 μL of the first CII emulsion was injected subcutaneously into the tail of the respective mouse of the pathological control group, the comparative group, and the two experimental groups. The mice were subjected to a boost injection using 200 μL of the second CII emulsion on the 21st day after the initial immunization, so as to induce the occurrence of RA. In addition, the rats of the normal control group were injected with an adjuvant solution (in PBS).
After completion of the boost injection, the respective mouse in the comparative group was intraperitoneally injected with 100 μL of 1% HA, the respective mouse in the experimental group 1 was intraperitoneally injected with 100 μL of the EGF solution (containing 20 μg/g EGF) prepared in section C of Example 1, the respective mouse in the experimental group 2 was intraperitoneally injected with 100 μL of the mixture solution (containing 20 μg/g EGF) prepared in section C of Example 1. Each mouse was administered once daily for a total period of 20 days.
After completion of the evaluation of RA severity as described in section C of this example, the mice in each group were sacrificed by virtue of 95% CO2 asphyxiation, and the knee joint tissue of the hind leg and the sole tissue were obtained from each mouse carcass. The knee joint tissue of the hind leg of each mouse was subjected to histological sectioning, hematoxylin-eosin staining, and microscopic observation in sequence according to the methods described in section F of Example 1.
100 mg of the sole tissue of each mouse obtained in section D of this example was subjected to a freezing treatment with liquid nitrogen, followed by grinding. The resultant ground tissue was mixed with 1 mL of a tissue lysis buffer (Gold Biotechnology, Inc., Cat. No. GB-181-100) (containing protease inhibitor cocktail), followed by determining the contents of TNF-α, IL-1β, IL-6, IL-17A, IFN-γ, and IL-8 respectively using a TNF-α ELISA kit (BioLegend, Cat. No. 430904), an IL-1β ELISA kit (BioLegend, Cat. No. 432604), an IL-6 ELISA kit (BioLegend, Cat. No. 431304), an IL-17A ELISA kit (BioLegend, Cat. No. 432504), an IFN-γ ELISA kit (BioLegend, Cat. No. 430807), and an IL-8 ELISA kit (MyBioSource, Cat. No. MBS261967) in accordance with the manufacturer's instructions.
The data thus obtained were analyzed according to the method described in section 1 of “General Procedures”.

## EGF: Epidermal growth factor (Cat. No. 02-108, Joycom Bio-chem) dissolved in PBS, 20 μg/g EGF; given to experimental group 1 (NSDSECPLSHDGYCLHDGVCMYIEALDKYACNCVVGYIGERCQYRDLKWWELR; UniProt P01133 971-1023, looked up)
FIG. 8
  content of IL-1β: apparently or significantly lower than those determined in the pathological control group
  content of IL-6: apparently or significantly lower than those determined in the pathological control group
  content of TNF-α: apparently or significantly lower than those determined in the pathological control group
FIG. 9
  content of IFN-γ: apparently or significantly lower than those determined in the pathological control group
  content of IL-8: apparently or significantly lower than those determined in the pathological control group
  content of IL-17A: apparently or significantly lower than those determined in the pathological control group
